# Read-outs that look alike come from different tables or passages of the source.
# How the values were obtained:
# NMDAR2B = target: T1, NMDAR2B (Homo sapiens, UniProt Q13224); experiment: [3H]MK-801 binding, NMDAR2B expressing HEK cell membranes; format: biochemical; conditions: for Emax: read-out: NMDAR2B A: % maximal [3H]MK-801 binding relative to 1 mM glycine
# T1 construct: expressed in transfected cells; host or cells: HEK cells (membrane extract)
# Protocol: (§1) Assays were conducted as described by Moskal et al., “GLYX-13: a monoclonal antibody-derived peptide that acts as an N-methyl-D-aspartate receptor modulator,” Neuropharmacology, 49, 1077-87, 2005. These studies were designed to determine if the test compounds act to facilitate NMDAR activation in NMDAR2A, NMDAR2B, NMDAR2C or NMDAR2D expressing HEK cell membranes as measured by increases in [^3H]MK-801 binding.
# (§2) In the assay, 300 μg of NMDAR expressing HEK cell membrane extract protein was preincubated for 15 minutes at 25° C. in the presence of saturating concentrations of glutamate (50 μM) and varying concentrations of test compound (1×10^−15M−1×10^−7M), or 1 mM glycine. Following the addition of 0.3 μCi of [^3H]MK-801 (22.5 Ci/mmol), reactions were again incubated for 15 minutes at 25° C. (nonequilibrium conditions). Bound and free [^3H]MK-801 were separated via rapid filtration using a Brandel apparatus.
# (§3) In analyzing the data, the DPM (disintegrations per minute) of [^3H]MK-801 remaining on the filter were measured for each concentration of test compound or for 1 mM glycine. The DPM values for each concentration of a ligand (N=2) were averaged. The baseline value was determined from the best fit curve of the DPM values modeled using the GraphPad program and the log(agonist) vs. response(three parameters) algorithm was then subtracted from all points in the dataset. The % maximal [^3H]MK-801 binding was then calculated relative to that of 1 mM glycine: all baseline subtracted DPM values were divided by the average value for 1 mM glycine. The EC50 and % maximal activity were then obtained from the best fit curve of the % maximal [^3H]MK-801 binding data modelled using the GraphPad program and the log(agonist) vs. response(three parameters) algorithm.
# (§4) The tables below summarize the results for the wild type NMDAR agonists NMDAR2A, NMDAR2B, NMDAR2C, and NMDAR2D, and whether the compound is not an agonist (−), is an agonist (+), or is a strong agonist (++), where column A is based on the % maximal [^3H]MK-801 binding relative to 1 mM glycine (−=0; <100%=+; and >100%=++); and column B is based on log EC50 values (0=−; ≥1×10^−9M (e.g., −8)=+; and <1×10^−9M (e.g., −10)=++).
# NMDAR2A = target: T2, NMDAR2A (Homo sapiens, UniProt Q12879); experiment: [3H]MK-801 binding, NMDAR2A expressing HEK cell membranes; format: biochemical; conditions: for Emax: read-out: NMDAR2A A: % maximal [3H]MK-801 binding relative to 1 mM glycine
# T2 construct: expressed in transfected cells; host or cells: HEK cells (membrane extract)
# Protocol: as §1, §2, §3, §4
# IV pharmacokinetics = format: in vivo, Sprague Dawley rats; conditions: Sprague Dawley, rat, in vivo, iv, 2 mg/kg, normal saline (compounds marked * in 1% NMP and 99% normal saline); for C0: read-out: C0; for Vd: read-out: Vss
# Description: The table below summarizes the results of the IV pharmacokinetics.
# [1] = Oral pharmacokinetics (plasma, brain, CSF); conditions: rat, 10 mg/kg, per os; for bioavailability / AUC(0-t) / Cmax / Tmax: Sprague Dawley, plasma, po; for bioavailability: % F; for AUC(0-t): AUClast; for AUC(0-t) / Cmax / Tmax: normal saline (compounds marked * in 1% NMP and 99% normal saline)
# Protocol: Plasma, brain, and CSF samples were analyzed at various time points over a 24 hour period.
# [2] = tested on: rats' response (reduced floating time); experiment: Porsolt forced swim test; format: in vivo, Sprague Dawley rats; conditions: for % reduction in float time: relative to vehicle group
# Protocol: A non-clinical in vivo pharmacology study (Porsolt assay) was performed to measure antidepressant-like effects. A negative control (0.5% sodium carboxymethyl cellulose in 0.9% sterile saline vehicle) and a positive control (fluoxetine) are shown for comparison against test compound. The study allowed for the evaluation of the effects of each compound on the Porsolt forced swim test as assessed by the rats' response (reduced floating time) during a 5-minute swimming test.
# Male 2-3 month old Sprague Dawley rats were used (Harlan, Indianapolis, Ind.). Rats were housed in Lucite cages with aspen wood chip bedding, maintained on a 12:12 light:dark cycle (lights on at 5 AM), and given ad libitum access to Purina lab chow (USA) and tap water throughout the study.
# The Porsolt forced swim test adapted for use in rats was performed as described by Burgdorf et al., (The long-lasting antidepressant effects of rapastinel (GLYX-13) are associated with a metaplasticity process in the medial prefrontal cortex and hippocampus. Neuroscience 308:202-211, 2015). Animals were placed in a 46 cm tall×20 cm in diameter clear glass tube filled to 30 cm with tap water (23±1° C.) for 15 min on the first day (habituation) and 5 min on the subsequent test day. Positive control fluoxetine was dosed 3 times (24 h, 5 h and 1 h) prior to testing. Animals were tested 1 h post-dosing with the test compounds or vehicle. Animals received a 15 min habituation session 1 day before the 5 min test. A subset of compounds tested at 1 h post-dosing were retested at 1 wk post-dosing in the same sets of animals. Water was changed after every other animal. Animals were videotaped, and floating time as defined as the minimal amount of effort required to keep the animals head above water was scored offline by a blinded experimenter with high inter-rater reliability (Pearson's r>0.9).
# Each compound tested at dose level shown. Significance vs. vehicle group for each experiment is marked. […] A compound marked “No” was not statistically significant from vehicle. Data was averaged for test compound and vehicle groups (N approximately 8 per group) and the percent reduction in floating for group treated with test compound relative to group treated with vehicle is shown.
# [3] = 50 μM glutamate, read-out: NMDAR2B B: log EC50 (converted)
# [4] = 50 μM glutamate, read-out: NMDAR2A B: log EC50 (converted)
# [5] = 1 wk post-dose, 0.1 mg/kg, 0.1 mg/kg
# [6] = 1 wk post-dose, 0.1 mg/kg, Yes = p<=0.05 from vehicle
# [7] = 1 h post-dose, 0.1 mg/kg, 0.1 mg/kg
# [8] = 1 h post-dose, 0.1 mg/kg, Yes = p<=0.05 from vehicle
# T1 sequence (Q13224 27-1484, species assumed, other chains not shown): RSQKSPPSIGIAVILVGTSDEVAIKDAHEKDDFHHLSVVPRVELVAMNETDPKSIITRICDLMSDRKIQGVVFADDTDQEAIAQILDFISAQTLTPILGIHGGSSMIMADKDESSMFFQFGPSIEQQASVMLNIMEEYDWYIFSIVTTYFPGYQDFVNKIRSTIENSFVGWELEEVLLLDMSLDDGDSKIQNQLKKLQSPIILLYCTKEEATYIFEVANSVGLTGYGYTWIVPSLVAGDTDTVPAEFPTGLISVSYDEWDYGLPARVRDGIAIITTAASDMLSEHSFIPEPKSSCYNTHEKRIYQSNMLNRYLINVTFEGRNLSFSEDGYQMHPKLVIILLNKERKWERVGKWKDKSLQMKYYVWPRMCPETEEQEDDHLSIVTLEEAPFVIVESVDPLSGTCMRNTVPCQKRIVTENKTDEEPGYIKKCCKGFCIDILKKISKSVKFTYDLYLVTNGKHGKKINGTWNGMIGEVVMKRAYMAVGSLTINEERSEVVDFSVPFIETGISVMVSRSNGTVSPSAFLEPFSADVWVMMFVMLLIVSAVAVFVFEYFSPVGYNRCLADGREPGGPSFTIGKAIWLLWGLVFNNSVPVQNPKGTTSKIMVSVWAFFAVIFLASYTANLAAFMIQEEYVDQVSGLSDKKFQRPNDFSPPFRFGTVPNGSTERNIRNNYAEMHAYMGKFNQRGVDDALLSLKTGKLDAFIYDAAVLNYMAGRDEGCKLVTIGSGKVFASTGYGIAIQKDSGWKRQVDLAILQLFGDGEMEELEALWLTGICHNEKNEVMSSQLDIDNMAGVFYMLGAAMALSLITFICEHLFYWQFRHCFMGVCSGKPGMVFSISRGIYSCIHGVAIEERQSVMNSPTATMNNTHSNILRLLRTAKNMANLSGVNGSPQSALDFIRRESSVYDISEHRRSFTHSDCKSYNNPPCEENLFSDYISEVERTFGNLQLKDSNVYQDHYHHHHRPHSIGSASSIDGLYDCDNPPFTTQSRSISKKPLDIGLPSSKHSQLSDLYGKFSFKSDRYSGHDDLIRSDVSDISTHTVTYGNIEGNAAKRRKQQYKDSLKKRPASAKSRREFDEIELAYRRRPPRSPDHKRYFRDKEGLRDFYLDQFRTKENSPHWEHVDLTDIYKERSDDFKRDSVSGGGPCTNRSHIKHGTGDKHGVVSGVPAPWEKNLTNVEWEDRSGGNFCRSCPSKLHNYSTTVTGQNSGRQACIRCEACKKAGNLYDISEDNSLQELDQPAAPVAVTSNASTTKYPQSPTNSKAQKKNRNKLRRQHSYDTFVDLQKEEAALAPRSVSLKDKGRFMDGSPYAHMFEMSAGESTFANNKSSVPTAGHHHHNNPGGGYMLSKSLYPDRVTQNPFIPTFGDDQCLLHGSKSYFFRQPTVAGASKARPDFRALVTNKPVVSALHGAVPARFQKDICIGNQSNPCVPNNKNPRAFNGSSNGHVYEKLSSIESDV
# T2 sequence (Q12879 23-1464, species assumed, other chains not shown): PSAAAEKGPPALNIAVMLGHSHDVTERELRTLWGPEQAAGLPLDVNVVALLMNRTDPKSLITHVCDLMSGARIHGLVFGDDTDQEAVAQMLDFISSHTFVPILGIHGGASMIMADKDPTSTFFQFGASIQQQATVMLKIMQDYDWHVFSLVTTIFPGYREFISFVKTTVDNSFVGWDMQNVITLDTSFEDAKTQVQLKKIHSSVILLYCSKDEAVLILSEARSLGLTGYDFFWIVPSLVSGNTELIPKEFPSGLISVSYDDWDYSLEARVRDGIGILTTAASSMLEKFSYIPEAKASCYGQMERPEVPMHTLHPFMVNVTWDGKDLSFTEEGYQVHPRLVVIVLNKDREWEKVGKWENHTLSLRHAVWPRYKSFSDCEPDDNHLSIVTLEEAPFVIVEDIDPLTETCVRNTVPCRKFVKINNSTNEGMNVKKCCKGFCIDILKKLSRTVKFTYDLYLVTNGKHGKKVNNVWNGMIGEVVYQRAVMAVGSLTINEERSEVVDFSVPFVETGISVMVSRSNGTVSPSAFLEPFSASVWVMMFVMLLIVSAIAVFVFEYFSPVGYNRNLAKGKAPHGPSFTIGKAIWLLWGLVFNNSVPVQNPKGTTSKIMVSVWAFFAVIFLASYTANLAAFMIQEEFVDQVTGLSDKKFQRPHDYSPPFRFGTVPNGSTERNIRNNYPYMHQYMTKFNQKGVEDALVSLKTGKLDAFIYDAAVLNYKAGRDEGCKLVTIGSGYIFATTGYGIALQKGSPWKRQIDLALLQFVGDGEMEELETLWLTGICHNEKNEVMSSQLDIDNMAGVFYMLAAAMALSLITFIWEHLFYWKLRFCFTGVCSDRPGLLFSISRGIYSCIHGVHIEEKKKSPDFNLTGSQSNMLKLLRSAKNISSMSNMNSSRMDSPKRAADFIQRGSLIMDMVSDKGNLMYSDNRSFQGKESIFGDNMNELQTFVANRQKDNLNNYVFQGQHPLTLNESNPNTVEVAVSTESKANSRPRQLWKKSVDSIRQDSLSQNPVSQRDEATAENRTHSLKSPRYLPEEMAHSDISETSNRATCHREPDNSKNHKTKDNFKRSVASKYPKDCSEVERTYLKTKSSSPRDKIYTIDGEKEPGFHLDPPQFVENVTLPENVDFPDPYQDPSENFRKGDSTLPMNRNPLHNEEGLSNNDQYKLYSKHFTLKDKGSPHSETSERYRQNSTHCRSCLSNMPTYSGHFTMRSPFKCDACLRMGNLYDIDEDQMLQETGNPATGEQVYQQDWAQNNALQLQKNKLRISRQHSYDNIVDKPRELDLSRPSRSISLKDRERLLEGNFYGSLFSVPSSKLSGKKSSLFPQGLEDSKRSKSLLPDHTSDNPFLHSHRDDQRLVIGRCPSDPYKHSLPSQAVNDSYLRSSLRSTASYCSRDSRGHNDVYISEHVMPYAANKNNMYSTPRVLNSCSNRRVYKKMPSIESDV
SMILES,NMDAR2B A: % maximal [3H]MK-801 binding relative to 1 mM glycine (NMDAR2B; 50 μM glutamate),NMDAR2A A: % maximal [3H]MK-801 binding relative to 1 mM glycine (NMDAR2A; 50 μM glutamate),EC50 (NMDAR2B; [3]) [nM],EC50 (NMDAR2A; [4]) [nM],AUC(0-t) (IV pharmacokinetics) [ng·h/mL],clearance (IV pharmacokinetics) [mL/min/kg],half-life (IV pharmacokinetics) [min],C0 (IV pharmacokinetics) [ng/mL],Vd (IV pharmacokinetics) [L/kg],bioavailability [1] [%],AUC(0-t) [1] [ng·h/mL],Cmax [1] [ng/mL],Tmax [1] [min],further results
"O=C1NCC12CN(Cc1ccccc1)CCN2Cc1ccccc1 (single isomer, unassigned) [EA-2, 5,8-Dibenzyl-2,5,8-Triazaspiro[3.5]Nonan-1-One]",− (−=0),− (−=0),,,,,,,,,,,,
"CC(C)(C)OC(=O)N1CCNC2(CCNC2=O)C1 (single isomer, unassigned) [EM, Tert-Butyl 1-Oxo-2,6,9-Triazaspiro[4.5]Decane-9-Carboxylate]",++ (>100%=++),+ (<100%=+),> 1,< 1,,,,,,,,,,
"CC(C)(C)OC(=O)N1CCNC2(CCNC2=O)C1 (single isomer, unassigned) [EN, Tert-Butyl 1-Oxo-2,6,9-Triazaspiro[4.5]Decane-9-Carboxylate]",− (−=0),− (−=0),,,,,,,,,,,,
CC(C)(C)OC(=O)N1CCNC2(C1)CN(CC(N)=O)C2=O (stereo not drawn) [ER-141],+ (<100%=+),− (−=0),< 1,,1670,19.9,33,4280,0.7,31,2620,962,49.8,CSF Cmax [1]: 42 ng/mL
CC(C)(C)OC(=O)N1CCNC2(C1)CN(CC(N)=O)C2=O (stereo not drawn) [ER-142],− (−=0),+ (<100%=+),,< 1,,,,,,,,,,
O=C1NCCC12CNCCN2 (stereo not drawn) [ES-301],,,< 1,,,,,,,,,,,Emax (NMDAR2B; 50 μM glutamate): < 100%; Emax (NMDAR2A; 50 μM glutamate): 0%
O=C1NCCC12CNCCN2 (stereo not drawn) [ES-302],++ (>100%=++),− (−=0),< 1,,1720,18.9,142,6090,1.33,12,1040,340,49.8,
CN1CCN(Cc2ccccc2)C2(CCNC2=O)C1 (stereo not drawn) [ES-315],,,< 1,< 1,,,,,,,,,,"% reduction in float time [2, 5]: 25.0%; Significance vs. vehicle [2, 6]: No; % reduction in float time [2, 7]: 44.1%; Significance vs. vehicle [2, 8]: Yes; Emax (NMDAR2B; 50 μM glutamate): < 100%; Emax (NMDAR2A; 50 μM glutamate): < 100%"
CN1CCN(Cc2ccccc2)C2(CCNC2=O)C1 (stereo not drawn) [ES-316],+ (<100%=+),+ (<100%=+),,,1110,30.6,138,2090,1.75,55,3030,2770,15,"% reduction in float time [2, 5]: 42.4%; Significance vs. vehicle [2, 6]: Yes; % reduction in float time [2, 7]: 49.4%; Significance vs. vehicle [2, 8]: Yes; EC50 (NMDAR2B; read-out: NMDAR2B B: log EC50 (converted), 50 μM glutamate): < 1 nM; EC50 (NMDAR2A; read-out: NMDAR2A B: log EC50 (converted), 50 μM glutamate): < 1 nM; CSF Cmax [1]: 430.2 ng/mL; Brain Cmax [1]: 1583 ng/mL"
CC(=O)N1CCN(Cc2ccccc2)C2(CCNC2=O)C1 (stereo not drawn) [ES-319],+ (<100%=+),+ (<100%=+),< 1,< 1,1790,18.2,279,2770,1.74,72,6470,4760,19.8,"% reduction in float time ([2]; 1 wk post-dose, 0.1 mg/kg): 60.5%; Significance vs. vehicle [2, 6]: Yes; % reduction in float time ([2]; 1 h post-dose, 0.1 mg/kg): 76.3%; Significance vs. vehicle [2, 8]: Yes; CSF Cmax [1]: 520 ng/mL; Brain Cmax [1]: 758 ng/mL"
CC(=O)N1CCN(Cc2ccccc2)C2(CCNC2=O)C1 (stereo not drawn) [ES-320],− (−=0),− (−=0),,,,,,,,,,,,
CC(C)C(=O)N1CCN(Cc2ccccc2)C2(CCNC2=O)C1 (stereo not drawn) [ES-321],++ (>100%=++),+ (<100%=+),< 1,> 1,577,58.6,10.2,2570,0.71,16,466,795,15,
CC(C)C(=O)N1CCN(Cc2ccccc2)C2(CCNC2=O)C1 (stereo not drawn) [ES-322],− (−=0),− (−=0),,,,,,,,,,,,
C[C@@H](O)[C@H](N)C(=O)N1CCNC2(CCNC2=O)C1 (stereo partly drawn) [ES-335],,,< 1,< 1,,,,,,,,,,"% reduction in float time [2, 5]: 72.9%; Significance vs. vehicle [2, 6]: Yes; % reduction in float time [2, 7]: 58.5%; Significance vs. vehicle [2, 8]: Yes; Emax (NMDAR2B; 50 μM glutamate): < 100%; Emax (NMDAR2A; 50 μM glutamate): < 100%"
"CNCCC(Oc1ccc(C(F)(F)F)cc1)c1ccccc1 (stereo not drawn) [Fluoxetine, fluoxetine, reference compound]",,,,,,,,,,,,,,"Significance vs. vehicle ([2]; positive control, 20 mg/kg, dosed 3 times (24 h, 5 h and 1 h) prior to testing): Yes"

# Reference: patent US20230131402A1, “SPIRO-LACTAM NMDA RECEPTOR MODULATORS AND USES THEREOF” (Aptinyx Inc., priority 2016, published 2023)
